The text below walks through data of patent publication US20120225889A1, “USE OF MACROCYCLIC LACTONE DERIVATIVES FOR THE TREATMENT OF INFLAMMATORY DISORDERS” (PIRAMAL LIFE SCIENCES LIMITED, priority 2010, published 2012).

Holding throughout (assay type): cell-based
The test system of test [1] is TNF-α. Put plainly: Screening in LPS stimulated THP-1 cells: TNF-α. The following applies: Homo sapiens, 24 h, ELISA. The protocol:
(§1) IL-6 (BD Biosciences, USA) production by LPS (Escherchia coli 0127:B8, Sigma, USA) in THP-1 cells (ATCC number: TIB202) was designed as in reference, Journal of Immunology, 151, 5631-5638, (1993), the disclosure of which is incorporated by reference for the teaching of the assay.
(§2) THP-1 cells were cultured in RPMI 1640 culture medium (Gibco BRL, UK) containing 100 U/mL penicillin and […] streptomycin, (100× solution, Sigma, USA) containing 10% FBS (JRH Biosciences, USA). 25,000 cells were seeded per well in 96-well plate (Nunc, USA). The cells were differentiated with PMA (Sigma, USA, prepared as 100 μg/mL stock in RPMI and was diluted to 5 ng/mL). The test compound (prepared as 20 mM stock in DMSO and diluted with DMSO to achieve the following final concentrations in the assay: 100, 10, 1, 0.1, 0.01, 0.001 and 0.0001 μM) or vehicle (0.5% DMSO) were added to the cells and the cells were incubated for 30 min at 37° C. LPS (Sigma, USA, prepared as 1 mg/mL stock in PBS) was added to achieve a final concentration of 1 μg/mL. Plates were incubated at 37° C. for 24 h at 5% CO2. Supernatants were harvested, and assayed for TNF-α and IL-6 by ELISA as described by the manufacturer (BD Biosciences, USA). Percent inhibition of cytokine release compared to the control was calculated. The IC50 values were calculated by a nonlinear regression method.
In general terms: ELISA stands for enzyme-linked immunosorbent assay.

Test [2] relates to TNF-α. Put plainly: Human monocyte assay (LPS-induced): TNF-α. The following applies: LPS stimulated human monocytes, 5 h. The text has this: (§3) The assay was designed as in reference, Physiological Research, 52, 593-598, (2003), the disclosure of which is incorporated by reference for the teaching of the assay.
(§4) The objective of the assay is to determine whether compounds of the present invention—mediated inhibition of LPS-induced cytokines from monocytic THP-1 cell line translates to physiologically relevant human cells. Accordingly, the effect of compounds of the present invention on LPS—induced cytokine production from freshly isolated human monocytes was ascertained.
Peripheral blood was collected from healthy donors into potassium EDTA vacutainer tubes (BD Biosciences, USA). hPBMCs were isolated using density gradient separation (Histopaque-1077; Sigma, USA) and suspended in assay medium which is RPMI culture medium (Sigma, USA) containing 10% heat inactivated FBS (JRH Biosciences, Australia), 100 U/mL penicillin (Sigma, USA) and […] streptomycin (Sigma, USA). Monocytes in the hPBMCs were counted using a Coulter Counter following which the cells were resuspended at 2×10^5 monocytes/mL of assay medium. A cell suspension containing 2×10^4 monocytes was aliquoted per well of a 96-well plate (Nunc, USA). Subsequently, the hPBMCs were incubated for 4-5 h at 37° C., 5% CO2. […] The IC50 values were calculated by a nonlinear regression method using Graph Pad software (Prism 3.03).

Test [3] deals with IL-6. Description: Human monocyte assay (LPS-induced): IL-6. The following applies: LPS stimulated human monocytes, 5 h.
Description: as §3, §4
Peripheral blood was collected from healthy donors into potassium EDTA vacutainer tubes (BD Biosciences, USA). hPBMCs were isolated using density gradient separation (Histopaque-1077; Sigma, USA) and suspended in assay medium which is RPMI culture medium (Sigma, USA) containing 10% heat inactivated FBS (JRH Biosciences, Australia), 100 U/mL penicillin (Sigma, USA) and […] streptomycin (Sigma, USA). Monocytes in the hPBMCs were counted using a Coulter Counter following which the cells were resuspended at 2×10^5 monocytes/mL of assay medium. A cell suspension containing 2×10^4 monocytes was aliquoted per well of a 96-well plate (Nunc, USA). Subsequently, the hPBMCs were incubated for 4-5 h at 37° C., 5% CO2. During the incubation, the monocytes adhered to the bottom of 96-well plate. Following the incubation, the non-adherent lymphocytes were washed and assay medium was added to adherent monocytes. After 48 h of incubation at 37° C., 5% CO2, monocytes were pre-treated with various concentrations of test compound (prepared as 20 mM stock in DMSO; 1 μL of […] concentrated solution of test compound was dissolved in 200 μL cell suspension to achieve a final concentration of 0.03, 0.1, 0.3, 1, 3, 10, 30 and 100 μM) or vehicle (0.5% DMSO) or 10 μM dexamethasone (standard IL-6 and TNF-α inhibitor, Sigma, USA) for 30 min at 37° C., 5% CO2 and stimulated with 1 μg/mL LPS (Escherchia coli 0111:B4, Sigma, USA). The cells were then incubated for 5 h at 37° C., 5% CO2 following which supernatants were collected, stored at −70° C. and were assayed later for IL-6, and TNF-α by ELISA (OptiEIA ELISA sets, BD Biosciences, USA). The IC50 values were calculated by a nonlinear regression method using Graph Pad software (Prism 3.03).

In test [4] the test system is IL-6. Description: Screening in LPS stimulated THP-1 cells: IL-6. The conditions noted are these: Homo sapiens, 24 h, ELISA. The protocol:
as §1, §2

Test [5] deals with hPBMCs. Put plainly: Lymphocyte proliferation assay (T-cell proliferation of normal hPBMCs). The following applies: Homo sapiens, tritiated thymidine. The text has this:
The assay method was designed as in references, The Journal of Immunology, 153, 1-9, (1994), and Clinical and Diagnostic Laboratory Immunology, 7, 687-692, (2000), the disclosure of which is incorporated by reference for the teaching of the assay.
hPBMCs were obtained from healthy donors by centrifugation of heparinized venous blood over Ficoll/Hypaque solution (Histopaque-1077, Sigma, USA). Isolated hPBMCs were suspended in RPMI 1640 culture medium supplemented with 10% FBS and seeded at a density of 50,000 cells/well in a 96-well plate (Nunc, USA). The cells were incubated at 37° C., 5% CO2 for a period of 24 h. These cells were used for the lymphocyte proliferation as well as cytokine release assay.
The plated cells were treated with different concentrations of the test compound (prepared as 20 mM stock in DMSO and diluted with DMSO to achieve the following final concentrations in the assay: 100, 10, 1, 0.1, 0.01, 0.001 and 0.0001 μM) and were incubated for 30 min. The cells were then stimulated with 5 ng/mL PMA (Sigma, USA, prepared as 100 μg/mL stock in RPMI and was diluted to 5 ng/mL) and 5 μg/mL PHA (Sigma, USA, prepared as a 1 mg/mL stock in RPMI). The plates were incubated at 37° C., 5% CO2 for 48 h. The cells were treated overnight with 0.1 μCi of tritiated thymidine per well (obtained from BARC, India; prepared as stock of 1 mCi/mL) and was diluted in KRPH buffer to 10 μCi/mL and […] and was added per well to obtain a final concentration 0.1 μCi/well) and at the end of 48 h, the anti-proliferative effect of the compound was measured using the following formula: […]
Controls consisted of hPBMCs with PHA and PMA (Stimulated), hPBMCs with RPMI (Un-stimulated), hPBMCs with FK506 (positive control, Sigma, USA, prepared as 20 mM stock in DMSO and diluted with DMSO to achieve the following final concentrations in the assay: 100, 10, 1, 0.1, 0.01, 0.001 and 0.0001 μM).

Read-outs that look alike come from different tables or passages of the source.

Take `C/C=C/C(O)C(C)/C=C/C(=O)C(C)C(O)C(C)C1OC(=O)/C(OC)=C/C(C)=C/C(C)C(O)C(CC)C(O)C(C)C/C(C)=C/C=C/C1OC` (stereo not drawn) [Compound of example 6, (3Z,5E,13E,15E)-18-((6E,10E)-3,9-Dihydroxy-4,8-dimethyl-5-oxododeca-6,10-dien-2-yl)-9-ethyl-8,10-dihydroxy-3,17-dimethoxy-5,7,11,13-tetramethyloxacyclooctadeca-3,5,13,15-tetraen-2-one]: the IC50 is above 100000 nM in test [1], 5000 nM in test [2], 600 nM in test [3] and 100 nM in test [4].

Consider `C=CC[C@@H]1/C=C(\C)C[C@H](C)C[C@H](OC)[C@H]2O[C@@](O)(C(=O)C(=O)N3CCCC[C@H]3C(=O)O[C@H](/C(C)=C/[C@@H]3CC[C@@H](O)[C@H](OC)C3)[C@H](C)[C@@H](O)CC1=O)[C@H](C)C[C@@H]2OC` [FK506, reference compound], for which the IC50 in test [5] (hPBMCs stimulated with PMA and PHA, read-out: Stimulated hPBMC's IC50 (inhibition of cell proliferation)) was below 1 nM; in test [5] (unstimulated hPBMCs, read-out: Unstimulated hPBMC's IC50 (inhibition of cell proliferation)), 2000 nM.
